The target of one assay is T1, ERK2 kinase (Homo sapiens, UniProt P28482).
T1 construct: purchased Promega V1961
The assay is described as follows: ERK2 kinase inhibition (ADP-Glo). The format is biochemical. Conditions: ADP-Glo kit, 20 minutes reaction at room temperature. An excerpt:
ERK2 kinase (Promega, catalog No. V1961), RET (V804M), Active (Signalchem, catalog No, R02-12GG), ADP-Glo™ kit (Promega, catalog No. V9102), GDC-0994 (MCE, catalog No. HY-15947), ATP (Promega, catalog No. V910B), DMSO (Sigma, catalog No. D8418), DTT (Invitrogen, catalog No. P2325), 384-well plate (Greiner, catalog No. 784075), polypropylene 384-well plate (Labcyte, catalog No. P-05525-BC), polypropylene 96-well plate (Nunc, catalog No. 249944), plate shaker (Thermo, catalog No. 4625-1 CECN/THZ Q), centrifuge (Eppendorf, catalog No. 5810R), multilabel ELISA reader Envision 2104 multi-label Reader (PerkinElmer, catalog No. 74785), Echo acoustic dispenser (Labcyte, catalog No. 550).
Compound formulation: The test compounds were dissolved in DMSO to prepare a 10 mM stock solution. Then, the stock solution was diluted 10 times with a 3-fold gradient. When addition, 10-fold dilution was made with buffer solution.
ERK2 kinase assay: In 1× kinase buffer solution, ERK2 kinase was mixed with pre-formulated and diluted compounds of different concentrations for 10 minutes in duplicate for each concentration. The corresponding substrate and ATP were added thereto, and reacted at room temperature for 20 minutes (both a negative and a positive control were set, wherein the negative is blank control, and the positive control is GDC-0994). Detection reagent was added after the reaction is complete (reagent in ADP-Glo™ kit), and after 40 minutes of incubation at room temperature, Envision 2104 multi-label Reader ELISA reader was used for detection of enzyme activities under the presence of compounds of the present disclosure with different concentrations, and the inhibitory activities of different concentrations of compounds on enzyme activity were calculated. GraphPad Prism 6.0 software was used for data analysis, nonlinear curve regression was used to fit the data to get the dose-response curve, thereby IC50 values were calculated.
A general note: In ADP-Glo the light output rises with the ADP produced.

Assay [1] relates to phospho-p90RSK in A375 cell line. In words: A375 cell assay (phospho-p90RSK sandwich ELISA). As to conditions: Homo sapiens, A-375; inhibition of phospho-p90RSK, A375 cells (BRAF V600E), 4 hours incubation. The format is cell-based. The procedure:
The cells in the logarithmic growth phase were taken and the trypan blue exclusion method was used to detect the cell viability to ensure that the cell viability is above 90%. The cell concentration was adjusted, and 150 μL cell suspension was added to a 96-well plate, which was incubated at 37° C., 5% CO2 for 16 h. The maximum concentration of the drug to be tested was 10 μM, which was diluted into 10 concentrations with a 3-fold gradient dilution, 50 μL drug solution was added to each well of the 96-well plate in duplicate, and incubation was continued for 4 hours. After removing the medium, 0.2 ml cell lysis solution and […] were added to each well, which was incubated on ice for 30 mm, and centrifuged for 10 min at 4° C. to afford cell lysis solution. PathScan®Phospho-p90RSK (Thr359) Sandwich ELISA Kit (CST, catalog No. 91959C) was used for detecting the inhibitory rate of the compounds of the present disclosure on phospho-p90RSK, to each well 100 μL cell lysis solution was added, and incubated at 4° C. overnight. The plate was washed, added with 100 μL reconstituted Detection Antibody, and incubated at 37° C. for 1 h. The plate was washed, added with 100 μL reconstituted HRP-Linked secondary antibody, and incubated at 37° C. for 30 min. The plate was washed, added with 100 μL TMB Substrate, and after incubating at 25° C. for 30 min, 100 μL STOP Solution was added, and EnVision (Perkin Elmer 2104) was used to detect fluorescence value, and inhibitory rates under the effect of different concentrations of compounds were calculated. The calculation of IC50 was carried out using Prism Graphpad 8.0, software.
Phospho-p90RSK cell assay was conducted in A375 cell line, which has human malignant melanoma with BRAF V600E mutation that upregulates the MAPK pathway, and therefore has increased endogenous levels of phospho-ERK and phospho-p90RSK.

T1 sequence (P28482 whole entry): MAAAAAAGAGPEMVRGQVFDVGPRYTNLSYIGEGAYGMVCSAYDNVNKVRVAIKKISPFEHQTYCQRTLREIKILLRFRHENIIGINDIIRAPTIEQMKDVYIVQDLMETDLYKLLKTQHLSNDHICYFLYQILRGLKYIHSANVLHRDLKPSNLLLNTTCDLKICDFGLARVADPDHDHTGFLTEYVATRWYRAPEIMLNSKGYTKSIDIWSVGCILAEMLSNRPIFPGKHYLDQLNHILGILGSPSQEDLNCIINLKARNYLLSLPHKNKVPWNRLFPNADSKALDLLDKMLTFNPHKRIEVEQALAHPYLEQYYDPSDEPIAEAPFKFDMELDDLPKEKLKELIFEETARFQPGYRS

As usually defined, the IC50 is the concentration at which inhibition is half-maximal. Low readings indicate higher potency, high ones lower potency. In the case of `[2H]C([2H])([2H])OC[C@H]1Cn2cc(-c3nc(Nc4ccnn4C([2H])([2H])[2H])ncc3C)nc2C(=O)N1Cc1ccc(F)c(F)c1` [Compound I-5-1, (R)-7-(3,4-difluorobenzyl)-6-((methoxy-d3)-methyl)-2-(5-methyl-2-((1-(methyl-d3)-1H-pyrazol-5-yl)amino)pyrimidin-4-yl)-6,7-dihydroimidazo[1,2-a]pyrazin-8(5H)-one], the IC50 at ERK2 kinase was determined as 0.00275 µM; in assay [1], 0.0296 µM.
Regarding `[2H]C([2H])([2H])OC[C@H]1Cn2cc(-c3nc(Nc4ccnn4C)ncc3C)nc2C(=O)N1Cc1ccc(F)c(F)c1` [Compound I-4-1, (R)-7-(3,4-difluorobenzyl)-6-((methoxy-d3)-methyl)-2-(5-methyl-2-((1-methyl-1H-pyrazol-5-yl)amino)pyrimidin-4-yl)-6,7-dihydroimidazo[1,2-a]pyrazin-8(5H)-one], the figures for the IC50 (at ERK2 kinase; in assay [1]) were 0.00309 µM and 0.0249 µM, respectively.
As to `COC[C@H]1Cn2cc(-c3nc(Nc4ccnn4C)ncc3C)nc2C(=O)N1Cc1ccc(F)c(F)c1` [AZD0364, (R)-7-(3,4-difluorobenzyl)-6-(methoxymethyl)-2-(5-methyl-2-((1-methyl-1H-pyrazol-5-yl)amino)pyrimidin-4-yl)-6,7-dihydroimidazo[1,2-a]pyrazin-8(5H)-one, reference compound], the half-inhibitory concentration (IC50) against ERK2 kinase stood at 0.00401 µM; in assay [1], 0.0387 µM.
In the case of `[2H]C([2H])([2H])n1nccc1Nc1ncc(C)c(-c2cn3c(n2)C(=O)N(Cc2ccc(F)c(F)c2)[C@@H](COC)C3)n1` [Compound I-1, (R)-7-(3,4-difluorobenzyl)-6-(methoxymethyl)-2-(5-methyl-2-((1-(methyl-d3)-1H-pyrazol-5-yl)amino)pyrimidin-4-yl)-6,7-dihydroimidazo[1,2-a]pyrazin-8(5H)-one], the IC50 in assay [1] stood at 0.0301 µM.
In the case of `[2H]C([2H])(c1ccc(F)c(F)c1)N1C(=O)c2nc(-c3nc(Nc4ccnn4C([2H])([2H])[2H])ncc3C)cn2C[C@@H]1COC` [Compound I-3, (R)-7-((3,4-difluorophenyl)methyl-d2)-6-(methoxymethyl)-2-(5-methyl-2-((1-(methyl-d3)-1H-pyrazol-5-yl)amino)pyrimidin-4-yl)-6,7-dihydroimidazo[1,2-a]pyrazin-8(5H)-one], the IC50 on ERK2 kinase is 0.00331 µM; in assay [1], 0.0346 µM.

Source of the values: patent US20210386737A1, “DIHYDROIMIDAZOPYRAZINONE COMPOUND, COMPOSITION INCLUDING SAME, AND USE THEREOF” (priority 2018, published 2021).
